# Assay results as given in PubChem BioAssay (NCI).
#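 Following 48 hours of exposure in 96-well plates, responses at five concentrations were used to interpolate endpoints linearly. The concentration for 50% growth inhibition is given as GI50. At the TGI there is no net growth.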
# Assays:
# Experiment in all cases: NCI-60 cell line screen, 48 h
# A498 renal = tested on: A498 renal
# ACHN renal = tested on: ACHN renal
# BT-549 breast = tested on: BT-549 breast
# HCC-2998 colon = tested on: HCC-2998 colon
# K-562 leukemia = tested on: K-562 leukemia
# NCI-H226 lung = tested on: NCI-H226 lung
# NCI-H23 lung = tested on: NCI-H23 lung
# SF-539 CNS = tested on: SF-539 CNS
# SK-MEL-28 melanoma = tested on: SK-MEL-28 melanoma
# SK-OV-3 ovarian = tested on: SK-OV-3 ovarian
Structure (SMILES),GI50 (A498 renal),TGI (A498 renal),GI50 (ACHN renal),TGI (ACHN renal),GI50 (BT-549 breast),TGI (BT-549 breast),GI50 (HCC-2998 colon),TGI (HCC-2998 colon),GI50 (K-562 leukemia),TGI (K-562 leukemia),GI50 (NCI-H226 lung),TGI (NCI-H226 lung),GI50 (NCI-H23 lung),TGI (NCI-H23 lung),GI50 (SF-539 CNS),TGI (SF-539 CNS),GI50 (SK-MEL-28 melanoma),TGI (SK-MEL-28 melanoma),GI50 (SK-OV-3 ovarian),TGI (SK-OV-3 ovarian)
CNC(=O)c1c(NC(=O)c2cccc(C(F)(F)F)c2)sc2c1CCC(=O)C2,1.67 µM,5.71 µM,0.323 µM,1.34 µM,0.352 µM,2.83 µM,0.656 µM,2.52 µM,0.135 µM,> 100 µM,1.61 µM,5.71 µM,0.318 µM,7.56 µM,0.339 µM,1.67 µM,0.837 µM,> 100 µM,2.22 µM,8.24 µM
CCOC(=O)c1cc2c(n1Cc1cc(OC)cc(OC)c1)-c1oncc1CCC2,0.0469 µM,0.295 µM,0.0674 µM,> 100 µM,0.89 µM,> 100 µM,0.322 µM,> 100 µM,0.0575 µM,> 100 µM,23 µM,> 100 µM,0.544 µM,> 100 µM,0.0495 µM,0.203 µM,0.143 µM,> 100 µM,0.108 µM,> 100 µM
CN(C)/C=C/c1nnnn1-c1ccc(Cl)cc1,30.5 µM,87.1 µM,24.7 µM,> 100 µM,8.56 µM,38.7 µM,18.3 µM,34.5 µM,19.6 µM,> 100 µM,15.6 µM,44.3 µM,11.8 µM,29.8 µM,16.5 µM,44.4 µM,30.2 µM,> 100 µM,24.1 µM,81.6 µM
Cc1ccc2c[c]1[Hg][CH2]COS2(=O)=O,15.8 µM,29.3 µM,16.2 µM,29.7 µM,17.8 µM,31.6 µM,15.7 µM,34.5 µM,16.4 µM,41.2 µM,19.8 µM,43.5 µM,23.4 µM,49.2 µM,18 µM,32.5 µM,16.4 µM,29.9 µM,> 100 µM,> 100 µM
C=C1C(=O)O[C@H]2[C@H]1CC/C(CNS(=O)(=O)c1ccc3ccccc3c1)=C\CC[C@@]1(C)O[C@@H]21,10.2 µM,21.8 µM,0.514 µM,1.91 µM,1.76 µM,4.02 µM,3.68 µM,11.3 µM,0.691 µM,4.46 µM,13.9 µM,34.8 µM,2.03 µM,6.14 µM,1.73 µM,3.56 µM,1.57 µM,3.57 µM,16.3 µM,30 µM
O=C(Nc1ccc(Cl)cc1)c1cc2c(cc1O)[nH]c1ccccc12,2.56 µM,7.29 µM,3.11 µM,11.1 µM,2.29 µM,6.1 µM,2 µM,5.27 µM,4.28 µM,> 100 µM,2.52 µM,9.46 µM,2.54 µM,9.68 µM,2.34 µM,6.04 µM,4.41 µM,15.5 µM,2.32 µM,6.51 µM
NC1C2C(CC(=O)O)OCC=C3CN4CCC1(C(=O)C(=O)O)C4CC32 (configuration not stated),,> 100 µM,,> 100 µM,,> 100 µM,,,,> 100 µM,,> 100 µM,,> 100 µM,,> 100 µM,,> 100 µM,,> 100 µM
O=CN1N=C(c2ccc(Nc3ccnc4cc(Cl)ccc34)cc2)CC1c1ccccc1 (configuration not stated),1.3 µM,6.79 µM,4.21 µM,84.4 µM,3.81 µM,15.6 µM,3.5 µM,29.5 µM,,,5.22 µM,> 100 µM,3.64 µM,> 100 µM,4.57 µM,18.7 µM,8.35 µM,77.7 µM,11.3 µM,> 100 µM
CC/C=C\C/C=C\C[C@H](O)C/C=C1/C(=O)C=C[C@H]1C/C=C\CCC(=O)OC,> 8.25 µM,> 8.25 µM,3.06 µM,> 8.25 µM,2.78 µM,> 8.25 µM,1.6 µM,3.39 µM,2.26 µM,> 8.25 µM,2.32 µM,> 8.25 µM,2.06 µM,6.67 µM,2.82 µM,> 8.25 µM,2.85 µM,> 8.25 µM,> 8.25 µM,> 8.25 µM
COc1cc2c(c(OC)c1OC)-c1ccc(NNC(=S)N(Cc3cccc(C[N+](Cc4cccc(CNC56CC7CC(CC(C7)C5)C6)c4)(Cc4cccc(CNC56CC7CC(CC(C7)C5)C6)c4)Cc4cccc(CN(C(=S)NNc5ccc6c(cc5=O)[C@@H](NC(C)=O)CCc5cc(OC)c(OC)c(OC)c5-6)C56CC7CC(CC(C7)C5)C6)c4)c3)C34CC5CC(CC(C5)C3)C4)c(=O)cc1[C@@H](NC(C)=O)CC2 (some centres not stated),1.07 µM,3.28 µM,3.68 µM,7.99 µM,1.55 µM,5.89 µM,0.635 µM,1.47 µM,,,1.96 µM,9.97 µM,1.38 µM,5.33 µM,1.14 µM,4.3 µM,1.02 µM,4.07 µM,3 µM,7.51 µM
COC(=O)Nc1nc2ccc(Oc3ccc(NC(=O)Nc4cccc(Br)c4)cc3)cc2[nH]1,2.1 µM,17.4 µM,5.53 µM,> 25 µM,11.3 µM,> 25 µM,6.04 µM,> 25 µM,0.162 µM,> 12 µM,7.59 µM,> 25 µM,3.23 µM,> 17.1 µM,2.04 µM,> 20.8 µM,2.53 µM,7.7 µM,2.95 µM,15.3 µM
NC(=O)C(Br)CBr (configuration not stated),15.3 µM,29 µM,0.816 µM,2.18 µM,2.39 µM,7.4 µM,2.18 µM,4.78 µM,1.38 µM,5.29 µM,7.68 µM,27.1 µM,1.74 µM,3.42 µM,3.01 µM,10.3 µM,1.69 µM,3.29 µM,12 µM,25.1 µM
CC1=C(C(=O)Nc2ccc3[nH]ncc3c2)C(c2ccc(F)cc2)NC(=O)N1 (configuration not stated),> 14.6 µM,> 25 µM,> 25 µM,> 25 µM,16.9 µM,> 25 µM,> 25 µM,> 25 µM,> 25 µM,> 25 µM,6.46 µM,> 25 µM,> 25 µM,> 25 µM,> 25 µM,> 25 µM,> 25 µM,> 25 µM,> 25 µM,> 25 µM
COc1cc2c(cc1OCCCOC1=C=C=C(c3ccc4c(c3)c3cc(-c5ccc(OCCCOc6cc7c(cc6OC)C(=O)N6CCC[C@H]6C=N7)cc5)ccc3n4S(=O)(=O)c3ccc(C)cc3)C=C1)N=C[C@@H]1CCCN1C2=O,3.14 µM,9.06 µM,1.75 µM,7.8 µM,1.16 µM,4.59 µM,0.731 µM,3.67 µM,1.06 µM,> 18.6 µM,4 µM,12.9 µM,2.57 µM,24.2 µM,1.74 µM,6.3 µM,1.86 µM,4.97 µM,5.42 µM,16.5 µM
CC1=C(SCc2ccccc2)C(=O)c2ccccc2C1=O,,62.1 µM,,27.2 µM,,32.1 µM,,57 µM,,> 100 µM,,,,41.8 µM,,30 µM,,36.5 µM,,44.6 µM
CN(C)c1ccc(C(=O)c2ccc(N(C)C)c(N)c2)cc1N,1.03 µM,18.1 µM,14.8 µM,> 100 µM,8.02 µM,> 88.2 µM,3.9 µM,39.3 µM,0.867 µM,> 86.5 µM,16.8 µM,> 82.5 µM,9.75 µM,> 80.8 µM,3.92 µM,26.5 µM,12.8 µM,> 100 µM,5.57 µM,> 45 µM
Cc1[nH]c(C(=O)Nc2ccc(C(=O)N3CCNCC3)cc2OC(C)C)c(Cl)c1Cl,11.2 µM,24.7 µM,1.68 µM,3.07 µM,14.3 µM,29 µM,1.78 µM,3.38 µM,2.15 µM,4.71 µM,2.5 µM,5.79 µM,1.95 µM,4.21 µM,1.73 µM,3.19 µM,1.78 µM,3.24 µM,,
Cc1nc2cncc(C#Cc3cncc(C(=O)Nc4ccc(CN5CCN(C)CC5)c(C(F)(F)F)c4)c3)c2nc1C,0.0756 µM,0.772 µM,0.183 µM,2.53 µM,1.72 µM,7.8 µM,1.33 µM,20.5 µM,0.005 µM,5.81 µM,0.0572 µM,4.19 µM,0.77 µM,6.05 µM,0.207 µM,1.02 µM,0.422 µM,2.71 µM,0.251 µM,5.62 µM
C[N+](C)([O-])CCCNc1c2ccccc2nc2cccc([N+](=O)[O-])c12,,0.545 µM,,3.74 µM,,2.91 µM,,0.393 µM,,> 100 µM,,1.39 µM,,0.676 µM,,3.88 µM,,,,> 29.4 µM
CC(=N\O)/C(C)=N/O.CC(=N\O)/C(C)=N/O.CC(=N\O)/C(C)=N/O.CC(=N\O)/C(C)=N/O.[Cu].[Cu],24.4 µM,39.1 µM,18.7 µM,32.7 µM,19 µM,33.4 µM,16.8 µM,30.5 µM,34.3 µM,91.9 µM,23.5 µM,39.2 µM,,,20.8 µM,37.2 µM,18.8 µM,35.4 µM,18.6 µM,34.5 µM
NC(N)=N/N=C/c1c(-c2cccs2)nc2sccn12,4.46 µM,13.6 µM,13.2 µM,26.5 µM,19.3 µM,33.6 µM,,,6.49 µM,21.5 µM,13.2 µM,26 µM,14.3 µM,29 µM,12.4 µM,25.5 µM,12.6 µM,25.3 µM,13 µM,25.7 µM
C[C@]12CC/C(=N\N)C[C@@H]1CC[C@@H]1[C@@H]2CC[C@]2(C)/C(=N/N)CC[C@@H]12,> 100 µM,> 100 µM,> 100 µM,> 100 µM,> 100 µM,> 100 µM,> 100 µM,> 100 µM,> 100 µM,> 100 µM,,,> 100 µM,> 100 µM,> 100 µM,> 100 µM,,,> 100 µM,> 100 µM
O=C1c2ccccc2-c2nccc3cc(Cl)nc1c23,6.21 µM,32.5 µM,,,7.11 µM,> 100 µM,> 48.5 µM,> 100 µM,0.665 µM,5.24 µM,18.7 µM,> 81.5 µM,1.12 µM,2.4 µM,4.88 µM,24.7 µM,2.22 µM,15.8 µM,35.9 µM,> 100 µM
CCON=C1C(C)(C)C(C)(C)C(C)(C)C1(C)C,,> 100 µM,,> 100 µM,,> 100 µM,,,,> 100 µM,,> 100 µM,,> 100 µM,,> 100 µM,,> 100 µM,,> 100 µM
ON(CCc1ccncc1)Cc1ccccc1,,> 100 µM,,> 100 µM,,> 100 µM,,,,> 100 µM,,> 100 µM,,> 100 µM,,> 100 µM,,> 100 µM,,> 100 µM
CSc1ccc(-c2cc(-c3ccc(NC(=O)CCCN4CCCC4)cc3)nc(-c3ccc(NC(=O)CCCN4CCCC4)cc3)c2)cc1,,,3.65 µM,13.9 µM,2.21 µM,5.49 µM,2.49 µM,6.5 µM,1.64 µM,3.31 µM,3.12 µM,16.1 µM,1.67 µM,3.16 µM,2.52 µM,7.54 µM,3.83 µM,20.7 µM,2.97 µM,8.74 µM
